Laboratory results reported in patent US20130150399A1, “INHIBITORS OF THE UNFOLDED PROTEIN RESPONSE AND METHODS FOR THEIR USE” (The Board of Trustees of the Leland Stanford Junior …, priority 2006, published 2013).

Tests used:
XBP1-luciferase reporter = assay: XBP-luciferase reporter high throughput screen / IRE IC50 (tunicamycin + thapsigargin induced); type: cell-based, human; conditions: Assay IRE IC50; Conc 20 uM
Method: Specifically, HT1080 fibrosarcoma cells stably transfected with the unspliced XBP-1-luciferase reporter construct (3000/well) were plated onto a solid white 384 well microplate with a multidrop dispenser (40 μL per well). The plates were then placed into an automated incubator. After 24 hours of growth, a mixture of tunicamycin (1 μg/ml) and thapsigargin (100 nM) inducers were added, and candidate compounds were then added to the plates. After 24 hours, luciferase reagent (10 μl) was added to each well and the plates were read in a Molecular Devices Analyst GT (0.2 second read per well).
As described above in Example 2, HT1080 fibrosarcoma cells stably expressing the XBP-luciferase reporter were plated in a 384 well microplate (4000 cells/well). After 24 hours, cells were treated with a mixture of tunicamycin (4 μg/ml) and thapsigargin (0.4 μM), followed by the addition of one compound per well (10 μM). We screened a total of 66,000 diverse molecules obtained from Specs, Chembridge and ChemRX. Twenty-four hours post-induction, BriteGlo luciferase substrate (10 μl) was added to each well and the signal intensity determined in a plate reader (0.2 s read per well). […] We retested 431 compounds from the initial screen, and selected 58 compounds for additional analysis, including calculation of IC50 values and inhibition of a CMV-luciferase reporter.
Compounds of the screening library with structural similarity to compound 9389 (see Table 1) have been identified and in some cases further assayed for inhibitory activity. Compounds listed with “IC50” values were assayed secondarily after initially being identified in the high throughput screen. Each value represents a separate calculation of reporter inhibition based upon the high throughput robotic screening platform. The actual IC50 values are calculated and represent an estimate of the potency of each compound. This assay is not considered to be accurate below a concentration of 10 nM. Compounds classified with “mild” activity inhibited the XBP1-luciferase reporter by 10-30%. Compounds classified with “moderate” activity inhibited the XBP1-luciferase reporter by 30-75%. Compounds classified with “potent” activity inhibited the XBP1-luciferase reporter by 75-100%. Compounds classified with “undetected” activity inhibited the XBP1-luciferase reporter by less than 10% under the defined conditions.

[1] = tested on: PANC1 pancreatic adenocarcinoma cells; assay: PANC1 tumor growth in vivo; design: species or system nude mice; conditions: 60 mg/kg ip bolus every 48 hours, 5 doses
Method: Dose: 60 mg/kg ip bolus injection every 48 hours. 5 total doses. 5-7 tumors per group. PANC1 pancreatic adenocarcinoma cell line.
PANC1 pancreatic adenocarcinoma cells were implanted subcutaneously into nude mice. Mice were then given a bolus injection of one of the inventive irestatins (1401, 9337, 3611 or 9389) at a dose of 60 mg/kg every 48 hours for a total of 5 doses, with 5-7 tumors being treated per group.

HT1080 cells = assay: TUNEL staining, HT1080 cells under hypoxia; type: cell-based, human; conditions: 2.5 μM; 48 hours of hypoxia
Method: A. Effect of irestatin 9389 on PERK and ATF6 pathways. HT1080 cells were treated with vehicle alone (lanes 1-4) or 2.5 μM irestatin 9389 (lanes 5-8) and cultured under aerobic conditions for 18 hours (N) or shifted to hypoxia for the indicated times. Protein lysates were analyzed by Western blot analysis using antisera specific for ATF6 (top), CHOP/GADD153 (middle) or actin (bottom). Arrow indicates the cleaved, transcriptionally active form of ATF6. B. Cleavage of caspase-3 in irestatin-treated cells under hypoxia. HT1080 cells were cultured in normoxia (N) or under hypoxia for 36 hours (H 36) in absence or presence of irestatin 9389 (2.5 μM). Arrows indicate proteolytically cleaved caspase-3. C. Colony formation assay. HT1080 cells were treated as in B under normoxia (N) or hypoxia for 48 hours (H 48). Cells were harvested, counted, and allowed to grow under normal culture conditions for 11-12 days. Colonies were visualized with crystal violet staining. D. Quantification of clonogenic survival assay. Values represent the mean+/−SEM from at least 4 independent experiments. E. TUNEL staining of cells treated as in C. F. Quantification of TUNEL-positive cells. Values represent the mean+/− SEM from at least 3 experiments. […] Cells were harvested at the indicated times and counted by hemocytometer. Values represent the mean calculated from triplicate experiments+/−SEM. […]

For `Cc1csc(NC(=O)CSc2nc3c(c(C(F)(F)F)c2C#N)CCC3)n1` [Compound 9389], the “% Inh” value (XBP1-luciferase reporter) was 100.3%, the tumor growth [1] was “significant tumor growth was observed in untreated mice, but not in mice treated with the irestatins” and the TUNEL-positive cells (HT1080 cells) was 35%.
